These results are taken from ChEMBL document CHEMBL4819077, “Design, synthesis, and biological evaluation of diosgenin-indole derivatives as dual-functional agents for the treatment of Alzheimer's disease” (Eur J Med Chem, 2021).

In series [1] the test system is SH-SY5Y. The experiment in a line: Cytotoxicity against human SH-SY5Y cells assessed as reduction in cell viability measured after 24 hrs by MTT assay. The format is cell-based. (In general: Tetrazolium assays rely on reduction of a dye to a coloured formazan, in cell work by metabolically active cells.)
Series [2] concerns SH-SY5Y. Put plainly: Neuroprotection against H202-induced oxidative stress in human SH-SY5Y cells assessed as cell protection at 10 uM preincubated for 2 hr before H202 challenge and measured after 24 hrs by MTT assay. The format is functional.
Series [3] deals with SH-SY5Y. The experiment in a line: Neuroprotection against 6-OHDA-induced oxidative stress in human SH-SY5Y cells assessed as cell protection at 10 uM preincubated for 2 hr before 6-OHDA challenge and measured after 24 hrs by MTT assay. Format: functional. Conditions: time 26 hrs.
The test system of series [4] is SH-SY5Y. Put plainly: Neuroprotection against Abeta-induced oxidative stress in human SH-SY5Y cells assessed as cell protection at 10 uM incubated for 2 hr before Abeta(1-42) challenge and measured after 24 hrs by MTT assay. The format is functional. Conditions: time 26 hrs.

With `C[C@@H]1CC[C@@]2(OC1)O[C@H]1C[C@H]3[C@@H]4CCc5cc(OC(=O)Cc6c[nH]c7ccc(Br)cc67)ccc5[C@H]4CC[C@]3(C)[C@H]1[C@@H]2C`, the values for the Activity result in series [1], in series [2] and in series [3] were “Non-Toxic”, 15.8% and 4.2%, respectively.
With `C[C@@H]1CC[C@@]2(OC1)O[C@H]1C[C@H]3[C@@H]4CCc5cc(OC(=O)Cc6c[nH]c7ccccc67)ccc5[C@H]4CC[C@]3(C)[C@H]1[C@@H]2C`, the Activity entry was “Non-Toxic” in series [1], 18.4% in series [2], 61.1% in series [3] and 20.6% in series [4].
The like results for `C[C@@H]1CC[C@@]2(OC1)O[C@H]1C[C@H]3[C@@H]4CCc5cc(OC(=O)NCCc6c[nH]c7ccccc67)ccc5[C@H]4CC[C@]3(C)[C@H]1[C@@H]2C` were, in that order, “Non-Toxic”, 21.5%, 40.6% and 42.7%.
Turning to `C[C@@H]1CC[C@@]2(OC1)O[C@H]1C[C@H]3[C@@H]4CCc5cc(OC(=O)NCCc6c[nH]c7ccc(Br)cc67)ccc5[C@H]4CC[C@]3(C)[C@H]1[C@@H]2C`, the Activity entry in series [1] is given as “Non-Toxic”; in series [2], 29.6%; in series [3], 27.9%.
For `C[C@@H]1CC[C@@]2(OC1)O[C@H]1C[C@H]3[C@@H]4CCc5cc(OC(=O)Cc6c[nH]c7cc(Cl)ccc67)ccc5[C@H]4CC[C@]3(C)[C@H]1[C@@H]2C`, the values for the Activity result in series [1], in series [2] and in series [3] were “Non-Toxic”, 13.4% and 10.9%, respectively.
The corresponding values for `C[C@@H]1CC[C@@]2(OC1)O[C@H]1C[C@H]3[C@@H]4CCc5cc(OC(=O)NCCc6c[nH]c7ccc(Cl)cc67)ccc5[C@H]4CC[C@]3(C)[C@H]1[C@@H]2C` are “Non-Toxic”, 38.6% and 15.8%.
The corresponding values for `Cc1[nH]c2ccccc2c1CCNC(=O)Oc1ccc2c(c1)CC[C@@H]1[C@@H]2CC[C@]2(C)[C@@H]3[C@H](C[C@@H]12)O[C@]1(CC[C@@H](C)CO1)[C@H]3C` are “Non-Toxic”, 31.1% and 34.4%.
Take `COc1ccc2c(CC(=O)Oc3ccc4c(c3)CC[C@@H]3[C@@H]4CC[C@]4(C)[C@@H]5[C@H](C[C@@H]34)O[C@]3(CC[C@@H](C)CO3)[C@H]5C)c[nH]c2c1`: the Activity entry in series [1] was “Toxic”.
In the case of `Cc1ccc2[nH]cc(CC(=O)Oc3ccc4c(c3)CC[C@@H]3[C@@H]4CC[C@]4(C)[C@@H]5[C@H](C[C@@H]34)O[C@]3(CC[C@@H](C)CO3)[C@H]5C)c2c1`, the figures for the Activity result in series [1], in series [2] and in series [3] were “Non-Toxic”, 14.6% and 18.8%, respectively.
`C[C@@H]1CC[C@@]2(OC1)O[C@H]1C[C@H]3[C@@H]4CCc5cc(OC(=O)Cc6c[nH]c7ccc(F)cc67)ccc5[C@H]4CC[C@]3(C)[C@H]1[C@@H]2C`: the figures for the Activity result in series [1], in series [2] and in series [3] were “Non-Toxic”, 13.3% and 20.2%, respectively.
On to `Cc1[nH]c2ccccc2c1CC(=O)Oc1ccc2c(c1)CC[C@@H]1[C@@H]2CC[C@]2(C)[C@@H]3[C@H](C[C@@H]12)O[C@]1(CC[C@@H](C)CO1)[C@H]3C`, for which the Activity entry is listed as “Non-Toxic” in series [1], 22.7% in series [2] and 30.5% in series [3].
`C[C@@H]1CC[C@@]2(OC1)O[C@H]1C[C@H]3[C@@H]4CC=C5C[C@@H](O)CC[C@]5(C)[C@H]4CC[C@]3(C)[C@H]1[C@@H]2C` [DISOGENIN]: the Activity in series [2] is reported as 9.2%; in series [3], 14.2%; in series [4], 7.4%.
